Reference: US10597388B2, “Pyridazinone herbicides” (FMC CORPORATION, priority 2014, dated 2020)

Experiments:
Assay in all cases: Test C greenhouse herbicide test, pre- and postemergence
Assay type in all cases: in vivo
[1] = tested on: crabgrass, large (large crabgrass, Digitaria sanguinalis)
Method in brief: (§1)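 Percent-control ratings (0 none, 100 complete) came from visual comparison with controls held alongside in the greenhouse for 13–15 d. Treatments covered soil application at sowing and foliar application to young plants 2–18 cm tall.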

[2] = tested on: foxtail, giant (giant foxtail, Setaria faberii)
Method in brief: as §1

[3] = tested on: nutsedge, yellow (yellow nutsedge, Cyperus esculentus)
Method in brief: as §1

soybean (Glycine max) = tested on: soybean (Glycine max)
Method in brief: as §1

[4] = tested on: johnsongrass (Sorghum halepense)
Method in brief: as §1

[5] = tested on: ragweed (common ragweed, Ambrosia elatior)
Method in brief: as §1

[6] = tested on: barnyardgrass (Echinochloa crus-galli)
Method in brief: as §1

[7] = tested on: wheat (winter wheat, Triticum aestivum)
Method in brief: as §1

[8] = tested on: waterhemp (common waterhemp, Amaranthus rudis)
Method in brief: as §1

[9] = tested on: galium (catchweed bedstraw, Galium aparine)
Method in brief: as §1

[10] = tested on: oilseed rape (Brassica napus)
Method in brief: as §1

[11] = tested on: lambsquarters (Chenopodium album)
Method in brief: as §1

[12] = Postemergence, 31 g ai/ha, 0 to 100 scale (0 no effect, 100 complete control)
[13] = Postemergence, 125 g ai/ha, scale 0 to 100, 0 is no effect, 100 is complete control
[14] = Postemergence, 250 g ai/ha, scale 0 to 100, 0 no effect, 100 complete control, 13 to 15 d
[15] = Preemergence, 31 g ai/ha, scale 0 to 100, 0 is no effect, 100 is complete control
[16] = Preemergence, 62 g ai/ha, scale 0 to 100, 0 is no effect, 100 is complete control
[17] = Preemergence, 125 g ai/ha, scale 0 to 100, 0 is no effect, 100 is complete control
[18] = Preemergence, 250 g ai/ha, scale 0 to 100, 0 no effect, 100 complete control
[19] = postemergence, 62 g ai/ha, scale 0 to 100, 0 no effect, 100 complete control

Cc1ccc2ccccc2c1-c1c(O)c(I)nn(C)c1=O [Compound 29]
Crabgrass, Large plant response rating [1, 12]: 10
Plant response rating, Crabgrass, Large [1, 13]: 50
Plant response rating, Crabgrass, Large [1, 14]: 40
Plant response rating, Crabgrass, Large [1, 15]: 5
Plant response rating, Crabgrass, Large [1, 16]: 5
Plant response rating, Crabgrass, Large [1, 17]: 55
Crabgrass, Large plant response rating [1, 18]: 90
Crabgrass, Large plant response rating [1, 19]: 20
Foxtail, Giant plant response rating [2, 12]: 30
Plant response rating, Foxtail, Giant [2, 13]: 60
Plant response rating, Foxtail, Giant [2, 14]: 80
Plant response rating, Foxtail, Giant [2, 15]: 75
Plant response rating, Foxtail, Giant [2, 16]: 75
Plant response rating, Foxtail, Giant [2, 17]: 90
Foxtail, Giant plant response rating [2, 18]: 95
Foxtail, Giant plant response rating [2, 19]: 35
Nutsedge, Yellow plant response rating [3, 12]: 25
Plant response rating, Nutsedge, Yellow [3, 14]: 75
Plant response rating, Nutsedge, Yellow [3, 15]: 15
Plant response rating, Nutsedge, Yellow [3, 16]: 80
Plant response rating, Nutsedge, Yellow [3, 17]: 85
Nutsedge, Yellow plant response rating [3, 18]: 85
Nutsedge, Yellow plant response rating [3, 19]: 35
Soybean plant response rating (soybean (Glycine max); [12]): 0
Plant response rating, Soybean (soybean (Glycine max); [13]): 20
Plant response rating, Soybean (soybean (Glycine max); [14]): 25
Plant response rating, Soybean (soybean (Glycine max); [16]): 0
Plant response rating, Soybean (soybean (Glycine max); [17]): 0
Soybean plant response rating (soybean (Glycine max); [18]): 0
Soybean plant response rating (soybean (Glycine max); [19]): 10
Johnsongrass plant response rating [4, 12]: 0
Plant response rating, Johnsongrass [4, 14]: 25
Plant response rating, Johnsongrass [4, 15]: 10
Plant response rating, Johnsongrass [4, 16]: 5
Plant response rating, Johnsongrass [4, 17]: 25
Johnsongrass plant response rating [4, 18]: 20
Johnsongrass plant response rating [4, 19]: 5
Ragweed plant response rating [5, 12]: 80
Plant response rating, Ragweed [5, 13]: 95
Plant response rating, Ragweed [5, 14]: 95
Plant response rating, Ragweed [5, 15]: 80
Plant response rating, Ragweed [5, 16]: 85
Plant response rating, Ragweed [5, 17]: 85
Ragweed plant response rating [5, 18]: 90
Ragweed plant response rating [5, 19]: 90
Barnyardgrass plant response rating [6, 12]: 15
Plant response rating, Barnyardgrass [6, 13]: 40
Plant response rating, Barnyardgrass [6, 14]: 40
Plant response rating, Barnyardgrass [6, 15]: 10
Plant response rating, Barnyardgrass [6, 16]: 35
Plant response rating, Barnyardgrass [6, 17]: 80
Barnyardgrass plant response rating [6, 18]: 90
Barnyardgrass plant response rating [6, 19]: 25
Wheat plant response rating [7, 12]: 5
Plant response rating, Wheat [7, 13]: 30
Plant response rating, Wheat [7, 14]: 10
Plant response rating, Wheat [7, 16]: 5
Plant response rating, Wheat [7, 17]: 45
Wheat plant response rating [7, 18]: 50
Wheat plant response rating [7, 19]: 5
Waterhemp plant response rating [8, 12]: 70
Plant response rating, Waterhemp [8, 13]: 80
Plant response rating, Waterhemp [8, 14]: 98
Plant response rating, Waterhemp [8, 16]: 100
Plant response rating, Waterhemp [8, 17]: 100
Waterhemp plant response rating [8, 18]: 100
Waterhemp plant response rating [8, 19]: 80
Galium plant response rating [9, 12]: 90
Plant response rating, Galium [9, 13]: 100
Plant response rating, Galium [9, 14]: 100
Plant response rating, Galium [9, 15]: 95
Plant response rating, Galium [9, 16]: 95
Plant response rating, Galium [9, 17]: 98
Galium plant response rating [9, 18]: 98
Galium plant response rating [9, 19]: 95
Oilseed Rape plant response rating [10, 12]: 0
Plant response rating, Oilseed Rape [10, 13]: 5
Plant response rating, Oilseed Rape [10, 14]: 0
Plant response rating, Oilseed Rape [10, 15]: 0
Plant response rating, Oilseed Rape [10, 16]: 0
Plant response rating, Oilseed Rape [10, 17]: 5
Oilseed Rape plant response rating [10, 18]: 70
Oilseed Rape plant response rating [10, 19]: 0
Lambsquarters plant response rating [11, 12]: 80
Plant response rating, Lambsquarters [11, 13]: 85
Plant response rating, Lambsquarters [11, 14]: 90
Plant response rating, Lambsquarters [11, 15]: 75
Plant response rating, Lambsquarters [11, 16]: 80
Plant response rating, Lambsquarters [11, 17]: 80
Lambsquarters plant response rating [11, 18]: 90
Lambsquarters plant response rating [11, 19]: 85
